{"source": "patent US20230391845A1", "about": "“GLP-1, GIP AND GLUCAGON RECEPTOR TRIPLE AGONISTS” (priority 2020, published 2023)", "key": {"human GLP-1 receptor": {"target": "T1, human GLP-1 receptor (Homo sapiens, UniProt P43220)", "T1 construct": "expressed in transfected cells; host or cells: BHK cells (parent line BHKTS13) containing CRE luciferase", "T1 sequence (P43220 24-463)": "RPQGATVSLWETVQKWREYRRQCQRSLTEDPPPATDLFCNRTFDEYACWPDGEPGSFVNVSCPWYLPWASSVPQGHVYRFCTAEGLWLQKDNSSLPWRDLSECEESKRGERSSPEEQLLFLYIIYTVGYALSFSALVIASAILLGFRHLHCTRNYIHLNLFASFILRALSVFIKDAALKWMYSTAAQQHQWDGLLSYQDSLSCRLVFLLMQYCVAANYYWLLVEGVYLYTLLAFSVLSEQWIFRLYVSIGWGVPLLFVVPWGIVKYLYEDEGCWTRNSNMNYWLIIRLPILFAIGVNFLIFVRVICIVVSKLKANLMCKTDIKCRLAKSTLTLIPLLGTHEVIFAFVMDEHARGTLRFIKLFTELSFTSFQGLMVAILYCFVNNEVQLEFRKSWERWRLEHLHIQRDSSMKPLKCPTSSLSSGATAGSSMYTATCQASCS", "assay": "In vitro functional potency (CRE luciferase; whole cells), human GLP-1R", "format": "cell-based"}, "human GIP receptor": {"target": "T2, human GIP receptor (Homo sapiens, UniProt P48546)", "T2 construct": "expressed in transfected cells; host or cells: BHK cells (parent line BHKTS13) containing CRE luciferase", "T2 sequence (P48546 22-466)": "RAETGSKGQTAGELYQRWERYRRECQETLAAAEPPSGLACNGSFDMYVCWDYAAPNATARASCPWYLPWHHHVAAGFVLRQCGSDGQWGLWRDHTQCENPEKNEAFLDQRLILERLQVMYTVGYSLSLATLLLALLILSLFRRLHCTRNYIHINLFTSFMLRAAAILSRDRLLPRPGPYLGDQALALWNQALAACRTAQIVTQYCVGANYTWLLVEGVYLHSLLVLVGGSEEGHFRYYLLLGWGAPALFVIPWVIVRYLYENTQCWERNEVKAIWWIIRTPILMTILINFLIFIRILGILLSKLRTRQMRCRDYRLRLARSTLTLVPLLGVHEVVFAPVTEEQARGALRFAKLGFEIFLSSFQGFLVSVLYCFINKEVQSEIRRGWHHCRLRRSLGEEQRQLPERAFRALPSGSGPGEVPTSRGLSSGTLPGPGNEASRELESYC", "assay": "In vitro functional potency (CRE luciferase; whole cells), human GIPR", "format": "cell-based", "conditions": "BHK CRE luc2P hGIPR whole cells; Table 1, position of substituent varied; read-out: hGIPR CRE Luc EC50"}, "human Gcg receptor": {"target": "T3, human Gcg receptor (Homo sapiens, UniProt P47871)", "T3 construct": "expressed in transfected cells; host or cells: BHK cells (parent line BHKTS13) containing CRE luciferase", "T3 sequence (P47871 26-477)": "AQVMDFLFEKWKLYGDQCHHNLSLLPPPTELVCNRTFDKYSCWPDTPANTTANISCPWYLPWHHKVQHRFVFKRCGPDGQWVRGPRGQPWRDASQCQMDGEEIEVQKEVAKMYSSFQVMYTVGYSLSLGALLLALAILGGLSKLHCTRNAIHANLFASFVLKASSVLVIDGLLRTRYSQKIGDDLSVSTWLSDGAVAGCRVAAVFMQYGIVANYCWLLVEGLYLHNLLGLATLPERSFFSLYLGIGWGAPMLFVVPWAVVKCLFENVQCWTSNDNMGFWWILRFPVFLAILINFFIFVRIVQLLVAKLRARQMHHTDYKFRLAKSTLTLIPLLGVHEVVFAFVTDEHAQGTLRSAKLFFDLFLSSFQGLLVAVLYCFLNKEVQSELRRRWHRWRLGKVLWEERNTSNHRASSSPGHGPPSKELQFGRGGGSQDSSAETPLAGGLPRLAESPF", "assay": "In vitro functional potency (CRE luciferase; whole cells), human GcgR", "format": "cell-based", "conditions": "BHK CRE luc2P hGcgR whole cells; Table 1, position of substituent varied; read-out: hGcgR CRE Luc EC50", "description": "The purpose of this example is to test the functional activity, or potency, of the compounds in vitro at the human and mouse GLP-1, GIP, and Gcg receptors. The in vitro functional potency is the measure of target receptor activation in a whole cell assay.\nIn vitro functional potency was determined by measuring the response of the target receptor in a reporter gene assay in individual cell lines. The assay was performed in stably transfected BHK cell lines that expresses one of the following G-protein coupled receptors: human GLP-1 receptor, human GIP receptor, human Gcg receptor, mouse GLP-1 receptor, mouse GIP receptor, or mouse Gcg receptor; and where each cell line contains the DNA for the cAMP response element (CRE) coupled to a promoter and the gene for firefly luciferase (CRE luciferase). When the respective receptor is activated, it results in the production of cAMP, which in turn results in expression of the luciferase protein. When assay incubation is completed, luciferase substrate (luciferin) is added resulting in the enzymatic conversion of luciferin to oxyluciferin and producing bioluminescence. The luminescence is measured as the readout for the assay.\nThe cells lines used in these assays were BHK cells with BHKTS13 as a parent cell line. The cell lines were derived from a clone containing the CRE luciferase element and were established by further transfection with the respective receptor to obtain the relevant cell line.\nThe cells were cultured at 37° C. with 5% CO2 in Cell Culture Medium. They were aliquoted and stored in liquid nitrogen. The cells were kept in continuous culture and were seeded out the day before each assay.\nGLP-1R and GcgR Cell Culture Medium consisted of DMEM medium with 10% FBS, 500 µg/mL G418, and 300 µg/mL hygromycin. GIPR Cell Culture Medium consisted of DMEM medium with 10% FBS, 400 µg/mL G418, and 300 µg/mL hygromycin. Assay Buffer consisted of DMEM w/o phenol red, 10 mM Hepes, 1× Glutamax, 1% ovalbumin, and 0.1% Pluronic F-68.\n• 1) Cells were plated at 5000 cells/well and incubated overnight in the assay plate. • 2) Cells were washed once in DPBS. • 3) Stocks of the test compounds and reference compounds in concentrations ranging from 100-300 pM were diluted 1:150 in Assay Buffer.\nThe data from the microtiter plate reader was first regressed in an Excel in order to calculate the x-axis, log scale concentrations based on the individual test compound's stock concentration and the dilutions of the assay. […] The software performs a non-linear regression (log(agonist) vs response). A minimum of two replicates was measured for each sample. The reported values are averages of the replicates."}, "[1]": {"assay": "Pharmacokinetic study in minipigs, i.v. administration", "parameters": "species or system Göttingen minipigs", "conditions": "female, Göttingen, minipig, in vivo, iv", "outline": "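Female Göttingen minipigs (7-14 months, 16-35 kg), fasted ~18 h pre-dose to 4 h post-dose, received i.v. injections of usually 1.5-2 nmol/kg via central venous catheter. Plasma sampled up to 14 days, assayed by ELISA or LCMS; terminal half-life (harmonic mean) from non-compartmental analysis.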"}, "[2]": {"assay": "IPGTT (intraperitoneal glucose tolerance test) in DIO mice", "format": "in vivo, C57BL/6J male mice", "conditions": "for iAUC, IPGTT (min*mg/dL) Day 14: i.p. glucose 2 g/kg, baseline subtracted AUC", "protocol": "(§1) The purpose of this example is to assess the in vivo effect of selected triple agonists on pharmacodynamic parameters in diet-induced obese (DIO) mice. The animals were treated once daily via subcutaneous injection with a liquid formulation of the triple agonist to be tested to assess effects on body weight, foot intake, and glucose tolerance.\n(§2) C57BL/6J male mice were purchased from Jackson Laboratories at approximately 8 weeks of age. Mice were group housed and fed a high-fat, high-sugar diet from Research Diets (D12331). Mice were maintained on this diet for 12 weeks prior to initializing the pharmacology studies. Mice exceeding a measured body weight of 50 grams were considered diet-induced obese (DIO) and included in pharmacology studies. Mice were exposed to a controlled 12 h:12 h light:dark cycle at ambient room temperature (22° C.) with ab libitum access to food and water. Studies were approved by and performed according to the guidelines of the Institutional Animal Care and Use Committee of the University of Cincinnati.\n(§3) All compounds in the study were formulated in the following buffer: 50 mM phosphate; 70 mM sodium chloride; 0.05% Tween-80, pH 7.4. Dosing solutions were formulated in glass vials and stored at 2-8° C. Dosing solutions were brought to room temperature before dosing and returned to 2-8° C. after dosing.\n(§4) DIO mice were distributed into groups (n=8 per group) such that statistical variations in the mean and standard deviations of fat mass and body weight were minimized between groups. The animals were grouped to receive treatment as follows: Vehicle or GLP-1/GIP/Gcg receptor triple agonists as described herein, where vehicle is 50 mM phosphate, 70 mM sodium chloride; 0.05% (v/v) Tween-80, pH 7.4. The test compounds were dissolved in the vehicle, to stock concentrations of […], then diluted 50- to 200-fold in the vehicle to achieve the desired dosing solution concentrations. Animals were dosed subcutaneously once daily in the morning for each day of treatment with dosing solution at a volume of 2-5 μL per gram of body weight as necessary to achieve the desired dose (e.g. 0.3 nmol/kg, 1.0 nmol/kg, or 3.0 nmol/kg).\nOn the day of the glucose tolerance test, animals were fasted for 4 h. Food was removed and animals were transferred to fresh cages. Animals had access to water but not to food. Tail blood glucose levels were measured, and mice were injected (t=0) with an intraperitoneal (i.p.) glucose load of 2 g/kg (200 mg/ml glucose solution, dose volume 10 ml/kg). Tail blood glucose levels were measured at times 0, 15, 30, 60, 90, 120 minutes following the i.p. glucose load. Stratification of the animals during the IPGTT was such that for example two mice from group 1 are dosed followed by two mice from group 2, 3, 4, before the next two mice from group 1, 2, 3 etc. were handled. This was to allow for equal distribution of “time of day” throughout all groups."}, "[3]": {"assay": "Pharmacodynamic study in DIO mice, daily s.c. dosing over 13 days (body weight, food intake)", "format": "in vivo, C57BL/6J male mice", "conditions": "for Absolute BW (grams) Day 0: Day 0 (baseline); for Cumulative food intake (grams) Day 13: mean ± SEM, n = 2", "protocol": "as §1, §2, §3\nas §4, with “The” for “DIO mice were distributed into groups (n=8 per group) such that statistical variations in the mean and standard deviations of fat mass and body weight were minimized between groups. The”\nBody weight (BW) and food intake were measured immediately prior to dosing each day. The percent change in body was calculated individually for each mouse based on initial body weight prior to the first injection."}, "[4]": {"conditions": "daily s.c. dosing over 13 days, compared to vehicle"}}, "note": "pEC50: −log10 of the molar value. Entries after “also recorded” stand apart in the source; their conditions may differ. Read-outs that look alike come from different tables or passages of the source. *1 amine or outer side, *2 acyl side, *3 side chain or, on linkers, in order; H or OH if unused. Where a SMILES comes first, the peptide text is derived from it. Side-chain parts run from the residue outwards. [ ]: non-standard residue; d: D form. The star is where a group is joined. C20 diacid = O=C(O)CCCCCCCCCCCCCCCCCCC(=O)*; C18 diacid = O=C(O)CCCCCCCCCCCCCCCCC(=O)*; γGlu = O=C(O)[C@H](CCC(=O)[*:2])N[*:1]; AEEA = NCCOCCOCC(=O)O; Aib = CC(C)(N)C(=O)O", "data": [{"compound": "CC[C@H](C)[C@H](NC(=O)[C@H](CO)NC(=O)[C@H](Cc1ccc(O)cc1)NC(=O)[C@H](CC(=O)O)NC(=O)[C@H](CO)NC(=O)[C@@H](NC(=O)[C@H](Cc1ccccc1)NC(=O)[C@@H](NC(=O)CNC(=O)[C@H](CCC(N)=O)NC(=O)C(C)(C)NC(=O)[C@@H](N)Cc1ccc(O)cc1)[C@@H](C)O)[C@@H](C)O)C(=O)N[C@@H](Cc1ccc(O)cc1)C(=O)N[C@@H](CC(C)C)C(=O)N[C@@H](CC(=O)O)C(=O)N[C@@H](CCCCNC(=O)COCCOCCNC(=O)COCCOCCNC(=O)CC[C@H](NC(=O)CCCCCCCCCCCCCCCCC(=O)O)C(=O)O)C(=O)N[C@@H](CCC(N)=O)C(=O)N[C@@H](C)C(=O)N[C@@H](C)C(=O)NC(C)(C)C(=O)N[C@@H](CCC(=O)O)C(=O)N[C@@H](Cc1ccccc1)C(=O)N[C@H](C(=O)N[C@@H](CC(N)=O)C(=O)N[C@@H](Cc1c[nH]c2ccccc12)C(=O)N[C@@H](CC(C)C)C(=O)N[C@@H](CC(C)C)C(=O)N[C@@H](C)C(=O)NCC(=O)NCC(=O)N1CCC[C@H]1C(=O)N[C@@H](CO)C(=O)N[C@@H](CO)C(=O)NCC(=O)N[C@@H](C)C(=O)N1CCC[C@H]1C(=O)N1CCC[C@H]1C(=O)N1CCC[C@H]1C(=O)N[C@@H](CO)C(N)=O)C(C)C", "note": "[Compound No. 1] (H-Y[Aib]QGTFTSDYSIYLDK([AEEA-AEEA-γGlu-C18 diacid])QAA[Aib]EFVNWLLAGGPSSGAPPPS-NH2; N-terminus assumed)", "values": [{"measurement": "pEC50", "setting": "human GLP-1 receptor; BHK CRE luc2P hGLP-1R whole cells, Table 1, position of substituent varied, read-out: hGLP-1R CRE Luc EC50", "result": 11.07}, {"measurement": "pEC50", "setting": "human GIP receptor", "result": 10.63}, {"measurement": "pEC50", "setting": "human Gcg receptor", "result": 9.80}, {"measurement": "half-life", "setting": "[1]", "result": 61, "unit": "h"}]}, {"compound": "CC[C@H](C)[C@H](NC(=O)[C@H](CO)NC(=O)[C@H](Cc1ccc(O)cc1)NC(=O)[C@H](CC(=O)O)NC(=O)[C@H](CO)NC(=O)[C@@H](NC(=O)[C@H](Cc1ccccc1)NC(=O)[C@@H](NC(=O)CNC(=O)[C@H](Cc1c[nH]cn1)NC(=O)C(C)(C)NC(=O)[C@@H](N)Cc1c[nH]cn1)[C@@H](C)O)[C@@H](C)O)C(=O)N[C@@H](Cc1ccc(O)cc1)C(=O)N[C@@H](CC(C)C)C(=O)N[C@@H](CCC(=O)O)C(=O)N[C@@H](CCCCNC(=O)COCCOCCNC(=O)COCCOCCNC(=O)CC[C@H](NC(=O)CCCCCCCCCCCCCCCCCCC(=O)O)C(=O)O)C(=O)N[C@@H](CCC(N)=O)C(=O)N[C@@H](C)C(=O)N[C@@H](C)C(=O)NC(C)(C)C(=O)N[C@@H](CCC(=O)O)C(=O)N[C@@H](Cc1ccccc1)C(=O)N[C@H](C(=O)N[C@@H](CCC(N)=O)C(=O)N[C@@H](Cc1c[nH]c2ccccc12)C(=O)N[C@@H](CC(C)C)C(=O)N[C@@H](CC(C)C)C(=O)N[C@@H](CCC(=O)O)C(=O)NCC(=O)NCC(=O)N1CCC[C@H]1C(=O)N[C@@H](CO)C(=O)N[C@@H](CO)C(=O)NCC(=O)N[C@@H](C)C(=O)N1CCC[C@H]1C(=O)N1CCC[C@H]1C(=O)N1CCC[C@H]1C(=O)N[C@@H](CO)C(N)=O)C(C)C", "note": "[Compound No. 44] (H-H[Aib]HGTFTSDYSIYLEK([AEEA-AEEA-γGlu-C20 diacid])QAA[Aib]EFVQWLLEGGPSSGAPPPS-NH2; N-terminus assumed)", "values": [{"measurement": "pEC50", "setting": "human GLP-1 receptor", "result": 11.74}, {"measurement": "iAUC, IPGTT (min*mg/dL) Day 14", "setting": "[2]; 0.3 nmol/kg s.c. once daily", "result": "25356 ± 4338", "unit": "mg·min/dL"}, {"measurement": "glucose tolerance compared to vehicle (in words)", "setting": "[2]; 1.0 nmol/kg and 3.0 nmol/kg doses", "result": "improved glucose tolerance"}, {"measurement": "iAUC, IPGTT (min*mg/dL) Day 14", "setting": "[2]; 1.0 nmol/kg s.c. once daily", "result": "14606 ± 2410", "unit": "mg·min/dL"}, {"measurement": "iAUC, IPGTT (min*mg/dL) Day 14", "setting": "[2]; 3.0 nmol/kg s.c. once daily", "result": "15161 ± 2257", "unit": "mg·min/dL"}, {"measurement": "Absolute BW (grams) Day 0", "setting": "[3]; 0.3 nmol/kg group", "result": "59.2 ± 1.2", "unit": "grams"}, {"measurement": "Absolute BW (grams) Day 13", "setting": "[3]; 0.3 nmol/kg s.c. once daily", "result": "56.9 ± 1.5", "unit": "grams"}, {"measurement": "Change in BW (%) Day 13", "setting": "[3]; 0.3 nmol/kg s.c. once daily", "result": "−3.9 ± 1.1", "unit": "%"}, {"measurement": "Cumulative food intake (grams) Day 13", "setting": "[3]; 0.3 nmol/kg s.c. once daily", "result": "28.0 ± 0.6", "unit": "grams"}, {"measurement": "Absolute BW (grams) Day 0", "setting": "[3]; 1.0 nmol/kg group", "result": "60.8 ± 1.1", "unit": "grams"}, {"measurement": "Absolute BW (grams) Day 13", "setting": "[3]; 1.0 nmol/kg s.c. once daily", "result": "52.7 ± 1.3", "unit": "grams"}, {"measurement": "Change in BW (%) Day 13", "setting": "[3]; 1.0 nmol/kg s.c. once daily", "result": "−13.4 ± 0.9", "unit": "%"}, {"measurement": "Cumulative food intake (grams) Day 13", "setting": "[3]; 1.0 nmol/kg s.c. once daily", "result": "24.8 ± 1.8", "unit": "grams"}, {"measurement": "Absolute BW (grams) Day 0", "setting": "[3]; 3.0 nmol/kg group", "result": "60.6 ± 1.1", "unit": "grams"}, {"measurement": "Absolute BW (grams) Day 13", "setting": "[3]; 3.0 nmol/kg s.c. once daily", "result": "43.1 ± 1.8", "unit": "grams"}, {"measurement": "Change in BW (%) Day 13", "setting": "[3]; 3.0 nmol/kg s.c. once daily", "result": "−29.1 ± 2.3", "unit": "%"}, {"measurement": "Cumulative food intake (grams) Day 13", "setting": "[3]; 3.0 nmol/kg s.c. once daily", "result": "12.4 ± 1.5", "unit": "grams"}, {"measurement": "reduction in body weight (in words)", "setting": "[3]; [4]", "result": "superior reduction; also recorded: dose-dependent effect"}, {"measurement": "reduction in food intake (in words)", "setting": "[3]; [4]", "result": "superior reduction; also recorded: dose-dependent effect"}]}]}
